From patent publication US20100099692A1, “HARMFUL ORGANISM CONTROL COMPOSITION” (priority 2007, published 2010) come the findings set out here.

In the first assay the test system is Bemisia tabaci imagoes. Put plainly: Test Example 1: cabbage leaf disc immersion test on Bemisia tabaci imagoes, controlling value after 4 days. The conditions noted are these: foliar, 96 h, compound I alone 400 ppm, cabbage leaf disc immersed 30 seconds. The format is in vivo.
The molecule `COC(=O)NNC(=O)c1cc(Cl)cc(Br)c1NC(=O)c1cc(Br)nn1-c1ncccc1Cl` [compound I-(70)] had a pest or weed control at 400 ppm of 90%. Same read-out and setting: the value for `COC(=O)NNC(=O)c1cc(Cl)cc(C)c1NC(=O)c1cc(C(F)(F)F)nn1-c1ncccc1Cl` [compound I-(5)] was 100%. For `COC(=O)NN(C)C(=O)c1cc(Cl)cc(C)c1NC(=O)c1cc(Br)nn1-c1ncccc1Cl` [compound I-(115)], the pest or weed control at 400 ppm was determined as 51%. On the same count and under the same terms, as for `COC(=O)NNC(=O)c1cc(Br)cc(Br)c1NC(=O)c1cc(Br)nn1-c1ncccc1Cl` [compound I-(68)], the figure is 95%; as for `COC(=O)NNC(=O)c1cc(Cl)cc(C)c1NC(=O)c1cc(Br)nn1-c1ncccc1Cl` [compound I-(34)], 100%; as for `COC(=O)N(C)N(C)C(=O)c1cc(Cl)cc(C)c1NC(=O)c1cc(Br)nn1-c1ncccc1Cl` [compound I-(119)], 100%. Take `COC(=O)N(C)N(C)C(=O)c1cc(Br)cc(Br)c1NC(=O)c1cc(Br)nn1-c1ncccc1Cl` [compound I-(204)]: the pest or weed control at 400 ppm came out at 100%.

In turn, `COC(=O)NNC(=O)c1cc(C#N)cc(C)c1NC(=O)c1cc(Br)nn1-c1ncccc1Cl` [compound I-(117)] displayed a pest or weed control at 400 ppm of 86%.

In turn, `COC(=O)N(C)NC(=O)c1cc(Br)cc(Br)c1NC(=O)c1cc(Br)nn1-c1ncccc1Cl` [compound I-(213)] gave a pest or weed control at 400 ppm of 100%.

In turn, `COC(=O)NNC(=O)c1cc(Br)cc(C)c1NC(=O)c1cc(C(F)(F)F)nn1-c1ncccc1Cl` [compound I-(74)] came in with a pest or weed control at 400 ppm of 100%.

Still in this assay, the particulars now being: foliar, 96 h, compound X alone 1000 ppm, cabbage leaf disc immersed 30 seconds.
For `CC#CCOc1ncnc(N2CC(C)CC(C)C2)c1F` (stereo not shown) [compound X, 4-(2-butynyloxy)-5-fluoro-6-(3,5-dimethylpiperidino)pyrimidine], the pest or weed control at 1000 ppm turned out to be 23%.

In another assay the test system is Bemisia tabaci imagoes. The assay can be described thus: Test Example 2: cabbage leaf disc immersion test on Bemisia tabaci imagoes, controlling value after 2 days. The format is in vivo. The conditions noted are these: compound I-(138) alone 800 ppm, cabbage leaf disc immersed 30 seconds.
Turning to `COC(=O)NN(C)C(=O)c1cc(C#N)cc(C)c1NC(=O)c1cc(Br)nn1-c1ncccc1Cl` [compound I-(138)], the “Pest controlling value (%)” value turned out to be 33%.

Staying with this assay, now noted: compound X alone 2000 ppm, cabbage leaf disc immersed 30 seconds.
Regarding `CC#CCOc1ncnc(N2CC(C)CC(C)C2)c1F` (stereo not shown) [compound X, 4-(2-butynyloxy)-5-fluoro-6-(3,5-dimethylpiperidino)pyrimidine], the “Pest controlling value (%)” value was 75%.

As usually defined, the pest or weed control is how far the test organism was held down. A lower pest or weed control goes with weak suppression.
